Measured values reported in patent US7378403B2, “Akt inhibitors, pharmaceutical compositions, and uses thereof” (The United States of America as represented by the …, priority 2002, dated 2008).

What was measured:
Type in all cases: cell-based
p70S6K = assay: Immunoblotting with phospho-specific antibodies: p70S6K phosphorylation
Protocol: (§1) The SH compounds were tested against Akt and other kinases that are either upstream of Akt (PDK-1), downstream of Akt (c-Raf, 4EBP-1, p70S6K, FKHR, GSK-3, and/or AFX), or downstream of Ras (ERK, p38). Immunoblotting was carried out with phospho-specific antibodies to assess activation state of the kinases, and with native antibodies to assess changes in protein levels. Similar results were obtained with the H1703 (FIG. 3A) or H157 cells (FIG. 3B). […] Upstream of Akt, phosphorylation of PDK-1 was not affected by any SH compound. Of the downstream substrates, c-Raf phosphorylation and 4EBP-1 phosphorylation were decreased most. Decreased c-Raf phosphorylation correlated with increased ERK and p38 phosphorylation, which is consistent with the inhibitory effect of S259 phosphorylation by Akt on c-Raf activity.

4EBP-1 = assay: Immunoblotting with phospho-specific antibodies: 4EBP-1 phosphorylation; conditions: summary, cell line not specified
Protocol: as §1

tuberin = assay: Phosphorylation of tuberin
Text: SH5, 6, 23, 24, and 25 are very active in decreasing Akt phosphorylation in a panel of cancer cell lines. These compounds decrease Akt phosphorylation as well as Akt kinase activity, with IC50s in the low micromolar range. These compounds appear to be specific for Akt, as the phosphorylation of the upstream kinase, PDK-1, is unaffected by any of the SH compounds, as is […]. Cell-line specific, selective inhibition of phosphorylation of substrates downstream of Akt, such as c-Raf, 4EBP-1, GSK-3, and/or FKHR/AFX was observed. […] Phosphorylation of tuberin, 4EBP-1 and P70S6K (substrates that control protein translation) was inhibited by SH23, 24, and 25; and SH5-6 inhibited phosphorylation of tuberin and 4EBP-1. Phosphorylation of forkhead family members AFX and FKHR that control transcription was inhibited by SH23 or 25. Phosphorylation of GSK-3 and c-Raf was attenuated by SH23-25.

Akt = assay: Immunoblotting with antibodies against Akt phosphorylated at S473 and native Akt after administration of compounds to cancer cell lines; conditions: for native Akt levels (immunoblot) / Akt phosphorylation at S473 (immunoblot): FIG. 1D; for decreasing Akt phosphorylation: panel of cancer cell lines (summary)
Protocol: The SH compounds were tested against Akt and other kinases that are either upstream of Akt (PDK-1), downstream of Akt (c-Raf, 4EBP-1, p70S6K, FKHR, GSK-3, and/or AFX), or downstream of Ras (ERK, p38). Immunoblotting was carried out with phospho-specific antibodies to assess activation state of the kinases, and with native antibodies to assess changes in protein levels.

AFX = assay: Immunoblotting with phospho-specific antibodies: AFX phosphorylation
Protocol: as §1

FKHR = assay: Immunoblotting with phospho-specific antibodies: FKHR phosphorylation
Protocol: as §1

MB468 cells = assay: Apoptosis in MB468 cells; conditions: MB468 cells (data not shown)
Protocol: (§2) Cell lines containing high or low endogenous levels of Akt activity were treated with SH compounds and the cell apoptosis was measured.

H1355 and A549 cells = assay: Apoptosis in cells with low endogenous Akt levels
Protocol: as §2

[1] = system: H1703, H157, and H1155 cells; assay: Apoptosis in cell lines with high levels of Akt activity; conditions: FIG. 4
Protocol: as §2

p38 = assay: Immunoblotting with phospho-specific antibodies: p38 phosphorylation; conditions: H1703 (FIG. 3A) or H157 cells (FIG. 3B)
Protocol: as §1

[2] = H1703 (FIG. 3A) or H157 cells (FIG. 3B)

SMILES	phosphorylation of P70S6K (p70S6K)	phosphorylation of 4EBP-1 (4EBP-1)	phosphorylation of tuberin (tuberin)	native Akt levels (immunoblot) (Akt)	Akt phosphorylation at S473 (immunoblot) (Akt; H1703 cells (wild type PTEN))	Akt phosphorylation (Akt; all three cell lines, FIG. 1F)	decreasing Akt phosphorylation (Akt)	phosphorylation of AFX (AFX)	phosphorylation of FKHR (FKHR)	Akt phosphorylation (Akt; [2])	native Akt levels (Akt; [2])	apoptosis (MB468 cells)	apoptosis (H1355 and A549 cells)	increase of apoptosis [1]	p38 phosphorylation (p38)	Akt phosphorylation at S473 (immunoblot) (Akt; H157 cells (mutant PTEN))	Akt phosphorylation at S473 (immunoblot) (Akt; cell line not specified (H1703, H157))
CCCCCCCCCCCCCCCCCCOCC(COP(=O)(O)OC1C(O)CCC(O)C1O)OC (centres unmarked) [SH25]	inhibited	inhibited	inhibited	without affecting	decreased	completely inhibited	very active	inhibited	inhibited								
CCCCCCCCCCCCCCCCCCOC[C@H](COP(=O)(O)O[C@@H]1[C@H](O)[C@H](O)C[C@H](O)[C@H]1O)OC [SH10]										inhibited	without affecting						
CCCCCCCCCCCCCCCCCCOCC(COP(=O)(O)OC1C(OCC(C)C)CC(O)C(O)C1O)OC (centres unmarked) [SH23]	inhibited	inhibited	inhibited	without affecting	decreased	completely inhibited	very active	inhibited	inhibited								
CCCCCCCCCCCCCCCCCCOC[C@H](COP(=O)(O)O[C@H]1[C@H](O)[C@@H](O)[C@H](O)C[C@H]1OC)OC [SH5]		inhibited	inhibited	without affecting	decreased	completely inhibited	very active			inhibited	without affecting	Increased apoptosis	did not undergo apoptosis				
CCCCCCCCCCCCCCCCCCOCC(COP(=O)(O)OC1C(O)CC(O)C(O)C1O)OC (centres unmarked) [DPIEL]														no effect	decreased		
CCCCCCCCCCCCCCCCCCOC[C@H](COP(=O)(O)O[C@H]1[C@H](O)C[C@H](O)C[C@H]1O)OC [SH16]				without affecting	decreased											All but SH16	
CCCCCCCCCCCCCCCCCCOC[C@H](CO)OC [SH7, reference compound]										did not decrease			did not undergo apoptosis	no effect			lack of decreased phosphorylation
CCCCCCCCCCCCCCCCCCOC[C@H](COP(=O)(O)O[C@@H]1CC[C@@H](O)[C@H](O)[C@H]1O)OC [SH6]		inhibited	inhibited	without affecting	decreased	completely inhibited	very active			inhibited	without affecting	Increased apoptosis	did not undergo apoptosis				
CCCCCCCCCCCCCCCCCCOCC(COP(=O)(O)OC1C(OCC2CCCCC2)CC(O)C(O)C1O)OC (centres unmarked) [SH24]	inhibited	inhibited	inhibited	without affecting	decreased	completely inhibited	very active										
